Data published in PMC2792609, “Effect of methomyl on hepatic mixed function oxidases in rats” (Indian Journal of Pharmacology, 2008).

Experiments:
Serum cholinesterase = target: T1, Serum cholinesterase (Rattus norvegicus, UniProt Q9JKC1); test: Serum cholinesterase activity; assay type: in vivo; conditions: female rats; for Serum cholinesterase: for 3 days; for depression of acetyl cholinesterase activity: 3 days
T1 construct: from tissue; host or cells: rat serum

cytochrome P450 = test: Hepatic microsomal cytochrome P450 level; assay type: in vivo, rat; conditions: for decrease in cytochrome P450 content: 3 days
Description: Adult male rats (weighing 200-230 g) were divided into four groups of six animals each. Group 1 received an equivalent amount of saline and served as control. Animals from group 2, 3, and 4 were given methomyl 1, 2, and 4 mg/kg body weight i.p. respectively, between 8: 00 a.m. and 9:00 a.m., for three consecutive days. In the second set of experiments, adult male rats were divided into four groups. Animals from group 2, 3, and 4 were injected with 4 mg/kg body weight methomyl for one, three, and five successive days. The volume injected into the rats of body weight 200 g was 1 ml. In another experiment, adult female rats and old male rats (weighing 350-450 g, 8 months old) were divided into two groups of six animals each. Group 2 of each category received methomyl (4 mg/kg body weight, i.p., for three successive days), and group 1 of each category received an equivalent amount of saline and served as the control group.
The rats were sacrificed by cervical dislocation, 24 hours after the last dose. Their livers were perfused in situ with ice cold 1.15% KCl containing 0.05 mM EDTA, rapidly excised, blotted dry, weighed, minced and homogenized with two volumes of ice cold 0.25 M sucrose solution, in a Potter-Elvehjem type homogenizer. The homogenate was centrifuged at 10,000 × g for 10 min, in a refrigerated centrifuge (REMI C-24). The microsomes were isolated by the procedure described by of Cinti et al.[4] The microsomal pellet was suspended in phosphate buffer (0.1 M, pH 7.4) and the suspension was used for the microsomal enzyme assays. Microsomal protein content was measured by the Biuret method, using bovine serum albumin as the standard.[5]
The microsomal electron transport components (cytochrome P450 and cytochrome b5) were determined using Hitachi UV-Visible double beam recording spectrophotometer, by the procedure of Omura and Sato.[67] Cytochrome c reductase activity was determined using the method recommended by Masters et al.[8] Aminopyrine N-demethylase activity was assayed according to the procedure described by Schenkman et al.[9] Formaldehyde liberated during N-demethylation was estimated by the procedure described by Nash.[10] Aniline hydroxylase assay was performed using the procedure reported by Govindwar and Dalvi.[11]

T1 sequence (Q9JKC1 24-597): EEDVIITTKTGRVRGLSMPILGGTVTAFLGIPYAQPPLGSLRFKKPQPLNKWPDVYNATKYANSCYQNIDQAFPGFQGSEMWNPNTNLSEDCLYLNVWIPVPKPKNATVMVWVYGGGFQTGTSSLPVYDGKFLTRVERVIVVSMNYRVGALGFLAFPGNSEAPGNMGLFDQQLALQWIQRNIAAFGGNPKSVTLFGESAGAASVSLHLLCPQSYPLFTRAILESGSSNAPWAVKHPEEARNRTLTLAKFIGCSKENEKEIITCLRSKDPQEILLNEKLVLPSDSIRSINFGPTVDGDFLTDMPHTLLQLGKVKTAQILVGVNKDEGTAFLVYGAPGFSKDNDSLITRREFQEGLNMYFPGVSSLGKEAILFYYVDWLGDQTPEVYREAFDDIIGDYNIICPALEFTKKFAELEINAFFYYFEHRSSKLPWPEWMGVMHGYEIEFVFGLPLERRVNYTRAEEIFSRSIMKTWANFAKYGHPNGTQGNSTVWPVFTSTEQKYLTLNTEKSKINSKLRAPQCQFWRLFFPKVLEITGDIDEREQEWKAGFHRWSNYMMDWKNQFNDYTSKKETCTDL

CNC(=O)ON=C(C)SC [methomyl, S-methyl-N-(methyl carbomyl)-thioacetimidate]
Serum cholinesterase (Serum cholinesterase; 1 mg/kg body weight i.p.): 1343 u/l
depression of acetyl cholinesterase activity (Serum cholinesterase; 1 mg/kg i.p.): 46%
Serum cholinesterase (Serum cholinesterase; 2 mg/kg body weight i.p.): 1193 u/l
depression of acetyl cholinesterase activity (Serum cholinesterase; 2 mg/kg i.p.): 52%
Cytochrome P450 (cytochrome P450; adult female rats, 4 mg/kg body weight, i.p., three days): 0.21 nmole/mg protein
decrease in cytochrome P450 content (cytochrome P450; adult male rats, 1 mg/kg i.p., vs control): 34%
Cytochrome P450 (cytochrome P450; adult male rats, 1 mg/kg i.p., for 3 days): 0.27 nmole/mg protein
decrease in cytochrome P450 content (cytochrome P450; adult male rats, 2 mg/kg i.p., vs control): 34%
Cytochrome P450 (cytochrome P450; adult male rats, 2 mg/kg i.p., for 3 days): 0.27 nmole/mg protein
decrease in cytochrome P450 content (cytochrome P450; adult male rats, 4 mg/kg i.p., vs control): 19%
decrease in the level of cytochrome P450 (cytochrome P450; adult male rats, 4 mg/kg i.p., five days, vs control): 37%
Cytochrome P450 (cytochrome P450; adult male rats, 4 mg/kg i.p., for 3 days): 0.33 nmole/mg protein
decrease in the level of cytochrome P450 (cytochrome P450; adult male rats, 4 mg/kg i.p., one day, vs control): 37%
decrease in the level of cytochrome P450 (cytochrome P450; adult male rats, 4 mg/kg i.p., three days, vs control): 42%
Cytochrome P450 (cytochrome P450; adult rats, 4 mg/kg i.p., 1 day of treatment): 0.30 nmole/mg protein
Cytochrome P450 (cytochrome P450; adult rats, 4 mg/kg i.p., 3 days of treatment): 0.28 nmole/mg protein
Cytochrome P450 (cytochrome P450; adult rats, 4 mg/kg i.p., 5 days of treatment): 0.30 nmole/mg protein
decrease in cytochrome P450 (cytochrome P450; old male rat, 4 mg/kg i.p., three days, vs control): 43%
Cytochrome P450 (cytochrome P450; old male rats, 4 mg/kg body weight, i.p., three days): 0.20 nmole/mg protein
